# From ChEMBL document CHEMBL3431459, “Roche carnitine palmitoyltransferase modulator screening data (supplementary data associated with the publication CHEMBL2216752)”
# Experiments:
# [1] = biological target: T1, Carnitine O-palmitoyltransferase 1, liver isoform (Rattus norvegicus, UniProt P32198); test: (§1) SUPPLEMENTARY: Inhibition of Carnitine palmitoyltransferase 1, liver isoform
# T1 sequence (P32198 whole entry): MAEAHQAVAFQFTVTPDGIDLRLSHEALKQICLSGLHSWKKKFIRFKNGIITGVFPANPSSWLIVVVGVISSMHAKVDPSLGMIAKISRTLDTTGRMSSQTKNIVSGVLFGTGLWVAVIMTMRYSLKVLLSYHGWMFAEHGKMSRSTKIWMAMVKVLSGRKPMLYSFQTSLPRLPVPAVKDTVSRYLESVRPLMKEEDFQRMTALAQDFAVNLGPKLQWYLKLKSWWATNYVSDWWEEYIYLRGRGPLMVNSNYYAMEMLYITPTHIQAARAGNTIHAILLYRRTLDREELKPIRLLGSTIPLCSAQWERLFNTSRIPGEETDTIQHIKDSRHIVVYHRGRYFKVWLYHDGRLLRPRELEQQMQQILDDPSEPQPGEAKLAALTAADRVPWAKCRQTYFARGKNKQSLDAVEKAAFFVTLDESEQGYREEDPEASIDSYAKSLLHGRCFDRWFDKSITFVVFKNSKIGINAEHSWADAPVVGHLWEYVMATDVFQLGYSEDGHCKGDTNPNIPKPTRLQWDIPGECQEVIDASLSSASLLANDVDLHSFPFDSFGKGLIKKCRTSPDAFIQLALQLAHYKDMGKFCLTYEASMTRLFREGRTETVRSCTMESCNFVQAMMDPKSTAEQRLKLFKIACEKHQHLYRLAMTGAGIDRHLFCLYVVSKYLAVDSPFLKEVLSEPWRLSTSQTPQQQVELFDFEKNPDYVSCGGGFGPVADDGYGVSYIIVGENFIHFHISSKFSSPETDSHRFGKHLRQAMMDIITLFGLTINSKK
# [2] = biological target: T2, Carnitine O-palmitoyltransferase 1, liver isoform (Homo sapiens, UniProt P50416); test: as §1
# T2 sequence (P50416 whole entry): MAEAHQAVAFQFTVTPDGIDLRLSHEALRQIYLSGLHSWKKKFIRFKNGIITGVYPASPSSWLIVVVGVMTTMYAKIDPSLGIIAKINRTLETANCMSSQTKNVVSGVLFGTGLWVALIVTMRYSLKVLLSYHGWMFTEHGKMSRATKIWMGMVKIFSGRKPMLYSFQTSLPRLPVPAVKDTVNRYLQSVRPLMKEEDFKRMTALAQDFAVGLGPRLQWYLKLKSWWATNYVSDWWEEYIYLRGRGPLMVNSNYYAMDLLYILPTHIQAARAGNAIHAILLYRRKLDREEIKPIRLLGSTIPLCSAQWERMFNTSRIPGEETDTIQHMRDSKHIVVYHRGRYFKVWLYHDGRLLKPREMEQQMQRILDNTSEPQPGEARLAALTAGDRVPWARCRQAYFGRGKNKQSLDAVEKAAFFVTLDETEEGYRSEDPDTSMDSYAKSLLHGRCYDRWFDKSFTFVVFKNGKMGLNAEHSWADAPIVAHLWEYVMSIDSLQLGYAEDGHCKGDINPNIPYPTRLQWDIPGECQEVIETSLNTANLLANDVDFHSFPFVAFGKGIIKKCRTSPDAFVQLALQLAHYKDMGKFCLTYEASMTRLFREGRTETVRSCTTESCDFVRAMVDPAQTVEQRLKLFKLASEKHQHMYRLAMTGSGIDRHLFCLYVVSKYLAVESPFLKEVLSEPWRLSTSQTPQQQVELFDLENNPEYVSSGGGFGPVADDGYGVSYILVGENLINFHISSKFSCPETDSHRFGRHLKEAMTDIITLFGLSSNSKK
# [3] = biological target: T3, Carnitine O-palmitoyltransferase 2, mitochondrial (Homo sapiens, UniProt P23786); test: (§2) SUPPLEMENTARY: Inhibition of Carnitine palmitoyltransferase 2
# T3 sequence (P23786 whole entry): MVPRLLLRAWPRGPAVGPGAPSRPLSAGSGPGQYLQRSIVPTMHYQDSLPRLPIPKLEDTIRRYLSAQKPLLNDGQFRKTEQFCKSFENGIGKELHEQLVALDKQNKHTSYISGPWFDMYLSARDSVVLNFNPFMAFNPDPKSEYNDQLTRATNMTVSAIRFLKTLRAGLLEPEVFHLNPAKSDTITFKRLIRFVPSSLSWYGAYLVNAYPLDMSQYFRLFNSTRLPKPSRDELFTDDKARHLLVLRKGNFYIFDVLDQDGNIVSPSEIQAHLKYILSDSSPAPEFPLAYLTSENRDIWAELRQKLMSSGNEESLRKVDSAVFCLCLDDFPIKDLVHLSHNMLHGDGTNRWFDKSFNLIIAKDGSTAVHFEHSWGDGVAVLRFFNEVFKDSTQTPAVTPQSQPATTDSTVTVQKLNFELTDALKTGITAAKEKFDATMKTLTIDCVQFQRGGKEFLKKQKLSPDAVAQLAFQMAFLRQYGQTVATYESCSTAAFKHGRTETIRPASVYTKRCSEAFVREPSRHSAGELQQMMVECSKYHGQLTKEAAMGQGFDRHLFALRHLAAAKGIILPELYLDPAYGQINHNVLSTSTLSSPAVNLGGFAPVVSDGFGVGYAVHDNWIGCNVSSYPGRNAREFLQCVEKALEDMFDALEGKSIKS
# [4] = biological target: T4, Carnitine O-palmitoyltransferase 2, mitochondrial (Rattus norvegicus, UniProt P18886); test: as §2
# T4 sequence (P18886 whole entry): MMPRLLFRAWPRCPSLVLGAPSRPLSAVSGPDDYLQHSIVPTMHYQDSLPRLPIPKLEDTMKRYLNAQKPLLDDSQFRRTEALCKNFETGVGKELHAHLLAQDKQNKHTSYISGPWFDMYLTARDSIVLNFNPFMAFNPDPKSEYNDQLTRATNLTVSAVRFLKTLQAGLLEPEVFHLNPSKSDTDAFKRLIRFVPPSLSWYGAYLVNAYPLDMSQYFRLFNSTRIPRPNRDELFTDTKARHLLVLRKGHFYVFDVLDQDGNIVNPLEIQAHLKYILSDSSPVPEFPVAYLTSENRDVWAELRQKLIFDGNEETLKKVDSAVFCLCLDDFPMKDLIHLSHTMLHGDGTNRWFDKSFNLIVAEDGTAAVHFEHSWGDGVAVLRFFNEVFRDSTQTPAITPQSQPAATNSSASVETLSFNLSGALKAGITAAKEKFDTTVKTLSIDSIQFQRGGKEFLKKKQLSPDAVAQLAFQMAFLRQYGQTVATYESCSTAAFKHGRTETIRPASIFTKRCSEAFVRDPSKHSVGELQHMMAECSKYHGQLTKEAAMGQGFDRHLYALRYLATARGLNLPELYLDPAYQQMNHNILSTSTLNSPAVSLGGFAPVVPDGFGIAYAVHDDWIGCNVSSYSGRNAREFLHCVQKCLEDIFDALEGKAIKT
# [5] = SUPPLEMENTARY: Lipophilicity (log D) Determination by high-throughput shake-flask; type: physicochemical; settings: octanol/water
# [6] = SUPPLEMENTARY: PAMPA permeability assay; type: physicochemical; settings: read-out: Permeability
# [7] = SUPPLEMENTARY: Lyophilisation Solubility Assay (LYSA); type: physicochemical; settings: read-out: Kinetic_solubility
# [8] = biological target: T5, Carnitine O-palmitoyltransferase 1, muscle isoform (Homo sapiens, UniProt Q92523); test: SUPPLEMENTARY: Inhibition of Carnitine palmitoyltransferase 1, muscle isoform; set-up: species or system Muscle tissue
# T5 sequence (Q92523 whole entry): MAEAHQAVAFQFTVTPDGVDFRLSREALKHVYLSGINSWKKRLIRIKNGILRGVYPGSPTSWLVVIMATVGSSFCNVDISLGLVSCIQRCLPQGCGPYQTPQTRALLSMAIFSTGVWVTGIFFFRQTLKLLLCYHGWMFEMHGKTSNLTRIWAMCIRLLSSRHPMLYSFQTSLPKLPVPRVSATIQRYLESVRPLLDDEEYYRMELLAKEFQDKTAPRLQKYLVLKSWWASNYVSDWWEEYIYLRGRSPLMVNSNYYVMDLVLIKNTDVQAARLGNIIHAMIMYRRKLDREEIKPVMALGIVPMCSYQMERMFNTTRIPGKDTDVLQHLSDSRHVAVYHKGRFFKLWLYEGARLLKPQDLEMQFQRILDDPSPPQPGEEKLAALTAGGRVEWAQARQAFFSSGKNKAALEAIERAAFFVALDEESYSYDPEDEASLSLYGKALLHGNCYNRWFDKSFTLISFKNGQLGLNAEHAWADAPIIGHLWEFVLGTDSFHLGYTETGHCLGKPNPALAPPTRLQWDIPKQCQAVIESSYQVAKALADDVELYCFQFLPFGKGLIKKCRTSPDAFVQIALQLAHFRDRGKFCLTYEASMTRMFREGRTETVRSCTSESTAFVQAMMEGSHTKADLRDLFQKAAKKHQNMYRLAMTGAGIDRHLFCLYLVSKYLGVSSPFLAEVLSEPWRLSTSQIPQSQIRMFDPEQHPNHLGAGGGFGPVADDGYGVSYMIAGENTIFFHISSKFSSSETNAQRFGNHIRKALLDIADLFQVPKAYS
SMILES,IC50 [1],IC50 [2],IC50 [3],IC50 [4],logD [5],Papp [6],solubility kinetic [7],IC50 [8]
O=C(COc1ccccc1)N1CCCC[C@@H]1c1noc(-c2ccc(-n3cncn3)cc2)n1,96.3 nM,91.2 nM,33400 nM,> 100000 nM,3.08,2.25 ×10⁻⁶ cm/s,11 µg/mL,> 100000 nM
COc1ccc(Cl)cc1S(=O)(=O)N(C)c1cc(C(=O)Nc2ccc(C(=O)O)cc2)cc2c1OCO2,122 nM,133 nM,17800 nM,27100 nM,0.26,2.06 ×10⁻⁶ cm/s,13 µg/mL,1750 nM
COc1ccc(Cl)cc1S(=O)(=O)c1cn(CCCO)c2ccc(C(=O)Nc3ccccc3)cc12,10.1 nM,45 nM,> 100000 nM,> 100000 nM,3.62,0.06 ×10⁻⁶ cm/s,< 1 µg/mL,> 100000 nM
COc1ccc(-c2noc([C@H]3CCCCN3C(=O)C#Cc3ccccc3)n2)cc1,500 nM,288 nM,> 100000 nM,> 100000 nM,> 3,2.48 ×10⁻⁶ cm/s,< 1 µg/mL,> 100000 nM
CC(=O)NCc1cccc(-c2n[nH]c([C@H]3CCCCN3C(=O)COc3ccccc3)n2)c1,428 nM,190 nM,54300 nM,> 100000 nM,2.17,4.04 ×10⁻⁶ cm/s,295 µg/mL,> 100000 nM
O=C(COc1ccccc1)N1CCCC[C@@H]1c1noc(-c2ccc3cccnc3n2)n1,153 nM,129 nM,21400 nM,> 100000 nM,2.35,5.43 ×10⁻⁶ cm/s,31.5 µg/mL,> 100000 nM
Cc1cc(C)cc(S(=O)(=O)N2CCOc3ccc(C(=O)Nc4nc(CC(=O)O)cs4)cc32)c1,31.9 nM,42.4 nM,> 100000 nM,> 100000 nM,0.5,3.17 ×10⁻⁶ cm/s,> 615 µg/mL,797 nM

# Second part, the molecule after the results:
IC50 [1],IC50 [2],IC50 [3],IC50 [4],logD [5],Papp [6],solubility kinetic [7],IC50 [8],SMILES
339 nM,89.3 nM,> 100000 nM,> 100000 nM,2.62,2.8 ×10⁻⁶ cm/s,19 µg/mL,> 100000 nM,O=C(COc1ccccc1)N1CCOC[C@@H]1c1nc(-c2ccc3[nH]cnc3c2)no1
306 nM,105 nM,58900 nM,93500 nM,1.09,2.77 ×10⁻⁶ cm/s,312 µg/mL,> 100000 nM,O=C1Cc2cc(-c3noc([C@H]4CNCCN4C(=O)COc4ccccc4)n3)ccc2N1
475 nM,35.4 nM,69400 nM,15000 nM,2.51,2.43 ×10⁻⁶ cm/s,44 µg/mL,13200 nM,O=C(COc1ccccc1)N1CCCC[C@@H]1c1nc(-c2ccc3[nH]c(=O)[nH]c3c2)no1
406 nM,60.8 nM,13400 nM,49300 nM,2.29,2.27 ×10⁻⁶ cm/s,65 µg/mL,> 100000 nM,O=C(COc1ccccc1)N1CCCC[C@@H]1c1nc(-c2ccc(S(=O)(=O)NCCO)cc2)no1
